Here are results for 47 compounds from patent publication US20240148744A1 (Celgene Corporation, priority 2021, published 2024).

The structures appear in SMILES notation.

The first assay has as its system Onchocerca gutturosa adult male worms. The assay is described as follows: Onchocerca gutturosa in vitro screening model: adult worm motility score and MTT/formazan viability. To be noted: read-out: O. gutt Activity class. The class given is cell-based.
As for `N#Cc1cccc(S(=O)(=O)Nc2c(Cl)ccc3cccnc23)c1` [Compound 82, N-(7-chloro-quinolin-8-yl)-3-cyano-benzene sulfonamide], the IC50 was 500 to 5000 nM.

Regarding `O=S(=O)(Nc1cccc2cccnc12)c1ccc2ccccc2c1` [Compound 282, N-(quinolin-8-yl)naphthalene-2-sulfonamide], the IC50 lay within 200 to 500 nM.

On to `Cc1cccnc1S(=O)(=O)Nc1cccc2c1N(C)CC2` [Compound 44, 3-methyl-N-(1-methyl-indolin-7-yl)-pyridine-2-sulfonamide], for which the IC50 lay in the range of 500 to 5000 nM.

With `Cc1cccnc1S(=O)(=O)Nc1cncc2cccnc12` [Compound 194, 3-methyl-N-(1,6-naphthyridin-8-yl)pyridine-2-sulfonamide], the IC50 is 200 to 500 nM.

Take `O=S(=O)(Nc1c(Cl)ccc2cccnc12)c1cncc(N2CCCC2)n1` [Compound 74, N-(7-chloro-quinolin-8-yl)-6-(pyrrol-idin-1-yl)pyr-azine-2-sulfonamide]: the IC50 is 200 to 500 nM.

Turning to `O=S(=O)(Nc1cccc2cccnc12)c1ccc(Cl)cc1Cl` [Compound 278, 2,4-dichloro-N-(quinolin-8-yl)benzene-sulfonamide], the IC50 lay within 200 to 500 nM.

In the case of `Cc1cccnc1S(=O)(=O)Nc1cccc2ncc(N3CCOCC3)cc12` [Compound 24, 3-methyl-N-(3-morpho-linoquinolin-5-yl)pyridine-2-sulfonamide], the IC50 is 500 to 5000 nM.

Turning to `Cc1cccnc1S(=O)(=O)Nc1cccc2c(OC(C)C)ccnc12` [Compound 19, N-(4-iso-propoxyquin-olin-8-yl)-3-methylpyr-idine-2-sulfonamide], the IC50 was 500 to 5000 nM.

Take `O=S(=O)(Nc1cccc2cccnc12)c1ncccc1O` [Compound 219, 3-hydroxy-N-(quinolin-8-yl)pyridine-2-sulfonamide]: the IC50 lay in the range of 500 to 5000 nM.

On to `Cc1cccnc1S(=O)(=O)Nc1cccc2c1CN(C)CC2` [Compound 43, 3-methyl-N-(2-methyl-1,2,3,4-tetra-hydroisoquin-olin-8-yl)pyr-idine-2-sulfonamide], for which the IC50 was less than 200 nM.

As to `CC(C)n1nccc1S(=O)(=O)Nc1cccc2c(Cl)ccnc12` [Compound 79, N-(4-chloro-quinolin-8-yl)-1-iso-propyl-1H-pyrazole-5-sulfonamide], the IC50 is less than 200 nM.

Another assay relates to Dirofilaria immitis. The assay is described as follows: Heartworm screen Dirofilaria immitis (stage DiMF/DiL4 not specified in the tables). The class given is cell-based. To be noted: read-out: D. immitis Activity class.
In the case of `Cc1ccc(C(F)(F)F)nc1S(=O)(=O)Nc1cccc2cccnc12` [Compound 163, 3-methyl-N-(quinolin-8-yl)-6-(trifluoromethyl) pyridine-2-sulfonamide], the IC50 lay in the range of 500 to 5000 nM.

Turning to `CCn1ccnc1S(=O)(=O)Nc1cccc2cc(N(C)C)cnc12` [Compound 286, N-(3-(dimethylamino)quinolin-8-yl)-1-ethyl-1H-imidazole-2-sulfonamide], the IC50 lay within 200 to 500 nM.

Turning to `Cc1cnccc1S(=O)(=O)Nc1cccc2cccnc12` [Compound 149, 3-methyl-N-(quinolin-8-yl)pyridine-4-sulfonamide], the IC50 lay within 500 to 5000 nM.

Consider `Cc1cc(C(F)(F)F)ncc1S(=O)(=O)Nc1cccc2cccnc12` [Compound 166, 4-methyl-N-(quinolin-8-yl)-6-(trifluoromethyl) pyridine-3-sulfonamide], for which the IC50 is 500 to 5000 nM.

For `O=S(=O)(Nc1cccc2cccnc12)c1ccc(C(F)(F)F)cn1` [Compound 145, N-(quinolin-8-yl)-5-(trifluoromethyl) pyridine-2-sulfonamide], the IC50 was 200 to 500 nM.

As for `O=S(=O)(Nc1cccc2cccnc12)c1cccnc1C(F)(F)F` [Compound 146, N-(quinolin-8-yl)-2-(trifluoromethyl) pyridine-3-sulfonamide], the IC50 lay within 500 to 5000 nM.

Regarding `CCn1ccnc1S(=O)(=O)Nc1cccc2c(-c3ccccc3)ccnc12` [Compound 291, 1-ethyl-N-(4-phenylquinolin-8-yl)-1H-imidazole-2-sulfonamide], the IC50 was less than 200 nM.

For the compound `O=S(=O)(Nc1cc(F)cc2cccnc12)c1nccn1-c1ccc(C(F)(F)F)cc1` [Compound 295, N-(6-fluoroquinolin-8-yl)-1-(4-(trifluoromethyl)phenyl)-1H-imidazole-2-sulfonamide], the IC50 was less than 200 nM.

For `CCn1ccnc1S(=O)(=O)Nc1cccc2c(Cl)ccnc12` [Compound 85, N-(4-chloro-quinolin-8-yl)-1-ethyl-1H-imidazole-2-sulfonamide], the IC50 is 500 to 5000 nM.

In the case of `Cc1ccncc1S(=O)(=O)Nc1cccc2cccnc12` [Compound 148, 4-methyl-N-(quinolin-8-yl)pyridine-3-sulfonamide], the IC50 was in the range of 500 to 5000 nM.

Consider `COc1ccc(S(=O)(=O)Nc2cccc3cccnc23)cn1` [Compound 144, 6-methoxy-N-(quinolin-8-yl)pyridine-3-sulfonamide], for which the IC50 fell in the range of 500 to 5000 nM.

For the compound `COc1cnc2c(NS(=O)(=O)c3ccc(C(F)(F)F)nc3)cccc2c1` [Compound 11, N-(3-meth-oxyquinolin-8-yl)-6-(trifluoro-methyl)pyr-idine-3-sulfonamide], the IC50 lay in the range of 500 to 5000 nM.

For `CCn1ccnc1S(=O)(=O)Nc1ccc(S(C)(=O)=O)c2cccnc12` [Compound 294, 1-ethyl-N-(5-(methylsulfonyl)quinolin-8-yl)-1H-imidazole-2-sulfonamide], the IC50 lay in the range of 200 to 500 nM.

On to `O=S(=O)(Nc1ccc(C(F)(F)F)c2cccnc12)c1nccn1-c1ccccc1` [Compound 289, 1-phenyl-N-(5-(trifluoromethyl)quinolin-8-yl)-1H-imidazole-2-sulfonamide], for which the IC50 was less than 200 nM.

Take `CCn1ccnc1S(=O)(=O)Nc1cccc2cc(C(C)=O)cnc12` [Compound 287, N-(3-acetylquinolin-8-yl)-1-ethyl-1H-imidazole-2-sulfonamide]: the IC50 is 200 to 500 nM.

In the case of `Cc1cnc(S(=O)(=O)Nc2cccc3cccnc23)n1C` [Compound 233, 1,5-dimethyl-N-(quinolin-8-yl)-1H-imidazole-2-sulfonamide], the IC50 fell in the range of 200 to 500 nM.

Take `CCn1ccnc1S(=O)(=O)Nc1cccc2c(C(C)=O)ccnc12` [Compound 288, N-(4-acetylquinolin-8-yl)-1-ethyl-1H-imidazole-2-sulfonamide]: the IC50 lay in the range of 200 to 500 nM.

With `O=S(=O)(Nc1cccc2cccnc12)c1nc2ccccc2[nH]1` [Compound 232, N-(quinolin-8-yl)-1H-benzo[d] imidazole-2-sulfonamide], the IC50 lay within 500 to 5000 nM.

As to `Cc1ccc(C(F)(F)F)c(S(=O)(=O)Nc2cccc3cccnc23)n1` [Compound 165, 6-methyl-N-(quinolin-8-yl)-3-(trifluoromethyl) pyridine-2-sulfonamide], the IC50 was 200 to 500 nM.

With `O=S(=O)(Nc1ccc(-c2ccc(F)cc2)c2cccnc12)c1nccn1CC(F)(F)F` [Compound 296, N-(5-(4-fluorophenyl)quinolin-8-yl)-1-(2,2,2-trifluoroethyl)-1H-imidazol-2-sulfonamide], the IC50 is less than 200 nM.

For `CCn1ccnc1S(=O)(=O)Nc1ccc(C#N)c2cccnc12` [Compound 290, N-(5-cyanoquinolin-8-yl)-1-ethyl-1H-imidazole-2-sulfonamide], the IC50 lay in the range of 200 to 500 nM.

With `Cc1ccccc1S(=O)(=O)Nc1cccc2cccnc12` [Compound 266, 2-methyl-N-(quinolin-8-yl)benzenesulfon-amide], the IC50 was in the range of 500 to 5000 nM.

With `COc1ccc2cccnc2c1NS(=O)(=O)c1ccc(C)cn1` [Compound 111, N-(7-methoxy-quinolin-8-yl)-5-methylpyr-idine-2-sulfonamide], the IC50 was 500 to 5000 nM.

Take `CCn1ccnc1S(=O)(=O)Nc1cc(C(=O)c2ccccc2)cc2cccnc12` [Compound 297, N-(6-benzoylquinolin-8-yl)-1-ethyl-1H-imidazole-2-sulfonamide]: the IC50 fell in the range of 200 to 500 nM.

With `CCn1ccnc1S(=O)(=O)Nc1cccc2c(C)ccnc12` [Compound 104, 1-ethyl-N-(4-methylquin-olin-8-yl)-1H-imidazole-2-sulfonamide], the IC50 is 200 to 500 nM.

As for `COc1ccnc2c(NS(=O)(=O)c3ccc(C(F)(F)F)nc3)cccc12` [Compound 10, N-(4-meth-oxyquinolin-8-yl)-6-(trifluoro-methyl)pyr-idine-3-sulfonamide], the IC50 lay within 500 to 5000 nM.

On to `Cc1cc(C)c(S(=O)(=O)Nc2cccc3cccnc23)cn1` [Compound 164, 4,6-dimethyl-N-(quinolin-8-yl)pyridine-3-sulfonamide], for which the IC50 was in the range of 500 to 5000 nM.

Turning to `O=S(=O)(Nc1cccc2cccnc12)c1cnccc1C(F)(F)F` [Compound 147, N-(quinolin-8-yl)-4-(trifluoromethyl) pyridine-3-sulfonamide], the IC50 fell in the range of 500 to 5000 nM.

As to `O=S(=O)(Nc1cccc2cccnc12)c1ccc(C2CC2)nc1` [Compound 142, 6-cyclopropyl-N-(quinolin-8-yl)pyridine-3-sulfonamide], the IC50 lay within 500 to 5000 nM.

In the case of `CCn1ccnc1S(=O)(=O)Nc1ccc(Br)c2cccnc12` [Compound 293, N-(5-bromoquinolin-8-yl)-1-ethyl-1H-imidazole-2-sulfonamide], the IC50 is less than 200 nM.

As for `O=S(=O)(Nc1c(Cl)cc(F)c2cccnc12)c1ncccc1C1CC1` [Compound 140, N-(7-chloro-5-fluoroquinolin-8-yl)-3-cyclo-propylpyridine-2-sulfonamide], the IC50 fell in the range of 500 to 5000 nM.

`O=S(=O)(Nc1ccc(Oc2cccc(C(F)(F)F)c2)c2cccnc12)c1nccn1CC(F)(F)F` [Compound 292, 1-(2,2,2-trifluoroethyl)-N-(5-(3-(trifluoromethyl)phenoxy)quinolin-8-yl)-1H-imidazole-2-sulfonamide]: the IC50 is less than 200 nM.

Consider `Cc1ccnc2c(NS(=O)(=O)c3ccc(C(F)(F)F)nc3)cccc12` [Compound 8, N-(4-methyl-quinolin-8-yl)-6-(trifluoro-methyl)pyr-idine-3-sulfon-amide], for which the IC50 fell in the range of 200 to 500 nM.

Turning to `O=S(=O)(Nc1cccc2cccnc12)c1cncc(C(F)(F)F)c1` [Compound 263, N-(quinolin-8-yl)-5-(trifluoromethyl) pyridine-3-sulfonamide], the IC50 was 200 to 500 nM.

As to `Cc1cnc2c(NS(=O)(=O)c3ncccc3C)cccc2c1` [Compound 66, 3-methyl-N-(3-methyl-quinolin-8-yl)pyridine-2-sulfonamide], the IC50 was in the range of 500 to 5000 nM.

For the compound `Cc1ccc(S(=O)(=O)Nc2cc(Cl)cc3cccnc23)nc1` [Compound 115, N-(6-chloro-quinolin-8-yl)-5-methylpyr-idine-2-sulfon-amide], the IC50 was 500 to 5000 nM.
